test: physchem; details: pH 6

Compound	solubility [µg/mL]
H-AAAFPSQRTSWEFLQSLVSIKQEKPA-OH	< 2000
H-PAPPPAVPKEHPAPPAPPPASAPTP-OH	> 2000
H-FYSNSTVSETQWKVTVTPR-OH	> 2000
H-ISSLFVSYFLYRVVFHFE-OH	< 2000
H-AHRQGEKQHLLPVFSRLALRLPWRHSVQL-OH	> 2000
H-AVGATKVPRNQDWLGVSRQL-OH	> 2000
H-GLTRISIQRAQPLPPCLPSFRPPTALQGLS-OH	> 2000
H-STEVEPKESPHLARHRHLMKTLVKSLST-OH	> 2000
H-KMQRRNDDKSILMHGLVSLRESSRG-OH	> 2000
H-LEEVAQRSHAVRSPGSPLILEVG-OH	> 2000
H-DPDVGVNSLQQYYLSPDLHFSLI-OH	< 2000
H-VNGISSQPQVPFYPNLQKSQYYSTV-OH	> 2000
H-SVLREDLGQLEYKYQYAYFRMGIKHPD-OH	< 2000
H-DSAVDKGHPNRSALSLTPGLRIGPSGLFLVFLA-OH	> 2000
H-TGKPEMDFVRLAQLFARARPMGLF-OH	> 2000
H-SHLASLKNNVSPVLRSHSFSDPSPKFA-OH	> 2000
H-LRVFIGNIAVNHAPVSLRPGLGLPPGAPPGTVP-OH	< 2000
H-DATFSDGSLGQLVKNTSATYALS-OH	> 2000
H-VSWGKKVQPIDSILADWNEDIEAFEMMEKD-OH	> 2000
H-VPDINMEKKLRKIRAQTQKHLDLYARDG-OH	> 2000
H-ALLQNVELRRNVLVSPTPLAN-OH	> 2000
H-KKNITNLSRLVVRPDTDAVY-OH	> 2000
H-GLEQLESIINFEKLTEWTSS-OH	< 2000
H-AASAAAFPSQRTSWEFLQSLVSIKQEK-OH	> 2000

Compound	solubility [µg/mL]
CC(C)C[C@H](NC(=O)[C@H](C)N)C(=O)N[C@@H](CCC(=O)O)C(=O)N[C@@H](CCC(=O)O)C(=O)N[C@@H](CCCCN)C(=O)N[C@@H](CCCCN)C(=O)NCC(=O)N[C@@H](CC(N)=O)C(=O)N[C@@H](Cc1ccc(O)cc1)C(=O)N[C@H](C(=O)N[C@H](C(=O)N[C@H](C(=O)N[C@@H](CC(=O)O)C(=O)N[C@@H](Cc1c[nH]cn1)C(=O)NCC(=O)N[C@@H](CO)C(=O)N[C@@H](CS)C(=O)N[C@H](C(=O)O)C(C)C)[C@@H](C)O)C(C)C)C(C)C	> 2000
H-PLMQTELHQLVPEADPEEMA-OH	> 2000
H-VDKNGRRRLVYLVENPGGYVAYS-OH	> 2000
H-RYNSTAATNEVSEVTVFSKSPVT-OH	> 2000
H-LMSNLAFADFCMRMYL-OH	< 2000
H-RLVLGKFGDLTNNFSSPHAR-OH	> 2000
H-KAHVEGDGVVEEIIRYHPFLYDRET-OH	< 2000
H-NHSAKFLKELTLAMDELEENFRG-OH	< 2000
H-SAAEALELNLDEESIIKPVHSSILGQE-OH	> 2000
H-ASATEPANDSLFSPGAANLFSTYLAR-OH	> 2000
H-PRVDLQGAELWKRLHEIGTEMIITK-OH	> 2000
H-TKRQVILLHTELERFLEYLPLRF-OH	> 2000
H-KGEKNGMTFSSTKDYVNNV-OH	> 2000
H-SDAFSGLTALPQSILLFGP-OH	> 2000
H-SGQPAPEETVLFLGLLHGLLLILRRLRGG-OH	< 2000
H-LSPREEFLRLCKKIMMRSIQ-OH	> 2000
H-LNYLRTAKFLEMYGVDLHPVYG-OH	< 2000
H-VDKNGRRRLVYLVENPGG-OH	> 2000
H-VKQLERGEASVVDFKKNLEYAAT-OH	> 2000
H-NNSKKKWFLFQDSKKIQVEQPQ-OH	> 2000
H-SGSPPLRVSVGDFSQEFSPIQEAQQD-OH	> 2000
H-EIHGKCENMTITSRGTTVTPTKETVSLG-OH	> 2000
H-SLTEESGGAVAFFPGNLSTSSSA-OH	> 2000
H-KLAWRGRISSSGCPSMTSPPSPMFGMTLHT-OH	> 2000

Compound	solubility [µg/mL]
H-HRPRPFSPGKQVSSAPLFMLDLYN-OH	> 2000
H-DPLMTCSEPERLTEILFQRAELE-OH	< 2000
H-SERYIGTEGGGMDQSILFLAEEGTAK-OH	< 2000
H-LHTHYDYVSALHPVSTPSKEYTSA-OH	> 2000
H-LARDIPPAVTGKWKLSDLRRYGAVPSG-OH	> 2000
H-YLLPKTAVVLRCPALRVRKP-OH	> 2000
H-YPEPQNKEAFVHSQMYSTDYDQI-OH	> 2000
H-HKSIGQPKLSTHPFLCPKPQKMNTSLGQHLTL-OH	> 2000
H-SHNELADSGIPENSFNVSSLVE-OH	> 2000
H-ALCPASRALEEKKGNYVV-OH	> 2000
H-EVVGGYTWPSGNIYQGYWAQGKR-OH	> 2000
H-RPAGRTQLLWTPAAPTAMAEVGPGHTP-OH	> 2000
H-LKEMNEKVSFIKNSLLSLDSQVGHLQD-OH	< 2000
H-PAAVDSVTIPPAQCYLSLLHL-OH	> 2000
H-DDNGNILDPDKTSTIALFKAHEV-OH	> 2000
H-SAVSAASIPAMHINQATNGGGS-OH	< 2000
H-ERLSIQNFSKLLNDNIFYMS-OH	< 2000
H-NNQTNSPTTPNFGSSGSFNLPNSGD-OH	> 2000
H-TTSGDERLYPSPTFYIHENYLQLFE-OH	< 2000
H-KLRTIPLSDNTIFRRICTIAKHLE-OH	> 2000
H-VTSPKASPVTFPAAAFPTASPANKD-OH	> 2000
H-FLLQVPGSPVVSPSA-OH	> 2000
H-DVTGPHLYSIYLHGSTDKLPYVTMGS-OH	> 2000
H-GSGSQMPAWRTRGAISASSTQKTPTTRL-OH	> 2000

Compound	solubility [µg/mL]
H-AAVRPEQRPAARGSRV-OH	> 2000
H-LPVFIGNIAVNHAPVSLRPGLGLPPGAPPGTVP-OH	> 2000
H-RRGGALFASRPRFTPL-OH	> 2000
H-SSELTAVNFPSFHVTSLKLMVSPTS-OH	> 2000
H-TSRRLTGLLDHEVQAGRQ-OH	> 2000
H-NILHQEELIAQKKWEIEAKMEQK-OH	> 2000
H-KGASLDAGWGSPRWTTTRMTSASAGRSTRA-OH	> 2000
H-GAVGATKVPRNQDWL-OH	> 2000
H-SHTQTTLFHTFYELLIQKNKHK-OH	> 2000
H-LTKLKFSLKKSFNFFDEYF-OH	< 2000
H-SAVSAASIPAEHINQATNGGGS-OH	> 2000
H-AQRKLYQDVMHENFTNLLSVGHQP-OH	> 2000
H-YFDVVERSTEKIVDTSLIFNI-OH	< 2000
H-SHQIHSYQLYTHPLLHPWDHRD-OH	> 2000
H-LSVPFTCGVNFGDSIEDLEI-OH	> 2000
H-VARNYLREAVSHNASLEVAILRD-OH	< 2000
H-DASDFLPDTQLFPHFTELLLPLDPLEGSSV-OH	> 2000
H-PSTANYNSFSSAPMPQIPVASVTPT-OH	> 2000
H-AIYHKYYHYLYSYYLPASLKNMVD-OH	< 2000
H-SSPLGRANGRRFANPRDSFSAMGFQR-OH	> 2000
H-STLPVISDSTTKRRWSALVIGL-OH	> 2000
H-AESAQRQGPNGGGEQSANEF-OH	> 2000

test: pH of peptide solutions in DMSO/D5W, with succinate, and with Hiltonol; format: physicochemical; details: not given

Compound	pH of peptides in DMSO/D5W	pH of peptides in DMSO/D5W/5mM S. Succinate spike	pH of peptides in DMSO/D5W/5nnM Succinate and Hiltonol
H-DSAVDKGHPNRSALSLTPGLRIGPSGLFLVFLA-OH [CS7411]	3.87	6.53	6.94
H-PIQVFYTKQPQNDYLHVALVSVFQIHQEAPSSQ-OH [CS6729]	3.87		
H-LPVFIGNIAVNHAPVSLRPGLGLPPGAPPLVVP-OH [CS6730]	4.20		
H-RGLHSQGLGRGRIAMAQTAGVLRSLEQEE-OH [CS6711]	3.82		
H-YLLPKTAVVLRCPALRVRKP-OH [CS7418]	3.98	6.76	6.96
H-LLTDRNTSGTTFTLLGVSDYPELQVPIPQAGLG-OH [CS7408]	3.89	6.31	6.75
H-IGALNPKRAAFFAEHYESWE-OH [CS7420]	3.84	6.38	6.56
H-KPKKVAGAATPKKSIKRTPKKVKKPATAAGTKK-OH [CS6717]	4.65		
H-SGQPAPEETVLFLGLLHGLLLILRRLRGG-OH [CS6937]	3.87	6.51	6.76
H-VQLSIQDVIRRARLSTVPTAQRVALRSGWI-OH [CS7413]	3.9	6.73	7.02
H-LPVFIGNIAVNHAPVSLRPGLGLPPGAPPGTVP-OH [CS7438]	4.24	6.78	6.96
H-KKNITNLSRLVVRPDTDAVY-OH [CS7431]	3.8	6.45	6.69
H-PLMQTELHQLVPEADPEEMA-OH [CS7430]	3.95	6.23	6.37
H-EPDQEAVQSSTYKDCNTLHLPTERFSPVR-OH [CS6710]	3.65		
H-VEQGHVRVGPDVVTHPAFLV-OH [CS7427]	3.72	6.34	6.52
H-GTKALQLHSIAGRWPRMEPWVVESMSLGVP-OH [CS7415]	3.91	6.61	6.81
H-SYDSVIRELLQKPNVRVVVL-OH [CS7425]	3.78	6.44	6.65
H-KGASLDAGWGSPRWTTTRMTSASAGRSTRA-OH [CS7414]	3.81	6.71	6.99
